From patent publication US20230078811A1, “USE OF DISTILLABLE VOLATILE SALT FOR THE PRETREATMENT OF BIOMASS” (The Regents of the University of California, priority 2020, published 2023)

Experiment: Distillation efficiency: pretreating solvent left in the solids after pretreatment and distillation
Assay type: physicochemical
Conditions: pretreat 100° C. 1 hour; distill 100° C. 1 hour, full vacuum; 40% solid loading; FIG. 4
Description: Distillation efficiency is measured using the following procedure: pretreat at 100° C. for 1 hour; distill at 100° C. for 1 hours in full vacuum, 40% solid loading (SL) with ethanolamine, enzyme saccharification (5%, 10%, 20% SL), and 10 mg/g biomass of CTEC/HTEC 9/1 cellulase. Distillation efficiency can be measured by determining the concentration of pretreating solvent in the solids after pretreatment.

## NCCO [ethanolamine]
  removal of the solvent by distillation: about 98.7%
